Values of other authors, collected in patent publication US20180214412A1, “IMMEDIATE RELEASE CANNABINOID FORMULATIONS” (CannTab Therapeutics Limited, priority 2017, published 2018).

Conditions: after administration

For CCCCCc1cc(O)c2c(c1)OC(C)(C)[C@@H]1CCC(C)=C[C@@H]21 [Dronabinol, (−)-trans-Δ9-tetrahydrocannabinol], the “duration of appetite stimulant effect” value is given as ≥ 24 h.
